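Results reflect a 48-hour exposure of cells in 96-well plates to compound at five concentrations. GI50 marks 50% less growth.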 Activity calls are given as the source filed them. Rule as the data show it: active = GI50 up to about 1.1 µM and inactive = higher.
Experiments:
Experiment in all cases: NCI anticancer screen, dose series, 48 h
CAKI-1 = test system: CAKI-1
K562 = test system: K562
SN12C = test system: SN12C
SF-539 = test system: SF-539
HCT-15 = test system: HCT-15
HOP-62 = test system: HOP-62
HL-60 = test system: HL-60
COLO 205 = test system: COLO 205
M14 = test system: M14
Malme-3M = test system: Malme-3M
SK-MEL-2 = test system: SK-MEL-2
RXF 393 = test system: RXF 393
SF-295 = test system: SF-295
NCI-H522 = test system: NCI-H522
BT-549 = test system: BT-549
LOX IMVI = test system: LOX IMVI
NCI-H460 = test system: NCI-H460
KM12 = test system: KM12
HCC 2998 = test system: HCC 2998
SW-620 = test system: SW-620
TK-10 = test system: TK-10
SK-OV-3 = test system: SK-OV-3
SR = test system: SR
PC-3 = test system: PC-3
T47D = test system: T47D
MDA-MB-231 = test system: MDA-MB-231
CCRF-CEM = test system: CCRF-CEM
OVCAR-4 = test system: OVCAR-4
IGROV-1 = test system: IGROV-1
UO-31 = test system: UO-31
NCI-H23 = test system: NCI-H23
MCF7 = test system: MCF7
A498 = test system: A498
NCI-H226 = test system: NCI-H226
OVCAR-5 = test system: OVCAR-5
SF-268 = test system: SF-268
ACHN = test system: ACHN
MOLT-4 = test system: MOLT-4
RPMI-8226 = test system: RPMI-8226
NCI/ADR-RES = test system: NCI/ADR-RES
EKVX = test system: EKVX
U-251 = test system: U-251
SK-MEL-28 = test system: SK-MEL-28
OVCAR-8 = test system: OVCAR-8
A549 = test system: A549
HCT-116 = test system: HCT-116
UACC-62 = test system: UACC-62
HOP-92 = test system: HOP-92
OVCAR-3 = test system: OVCAR-3
MDA-N = test system: MDA-N
MDA-MB-435 = test system: MDA-MB-435
SK-MEL-5 = test system: SK-MEL-5
786-0 = test system: 786-0
UACC-257 = test system: UACC-257
Hs-578T = test system: Hs-578T
HT-29 = test system: HT-29
DU-145 = test system: DU-145
SNB-19 = test system: SNB-19

## COc1ccc2c(c1)CC[C@@H]1C2CC[C@]2(C)OC(=O)CCC12 (stereo partly drawn)
CAKI-1
  GI50: 31.6 µM (inactive)
K562
  GI50: 3.01 µM (inactive)
SN12C
  GI50: 14.8 µM (inactive)
SF-539
  GI50: 15.2 µM (inactive)
HCT-15
  GI50: 17.5 µM
HOP-62
  GI50: 25 µM (inactive)
HL-60
  GI50: > 100 µM (inactive)
COLO 205
  GI50: 40.3 µM (inactive)
M14
  GI50: 13.2 µM (inactive)
Malme-3M
  GI50: 15.7 µM (inactive)
SK-MEL-2
  GI50: 23.1 µM (inactive)
RXF 393
  GI50: 12.7 µM (inactive)
SF-295
  GI50: 18.3 µM (inactive)
NCI-H522
  GI50: 6.07 µM (inactive)
BT-549
  GI50: 11.4 µM (inactive)
LOX IMVI
  GI50: 6.67 µM (inactive)
NCI-H460
  GI50: 22.7 µM (inactive)
KM12
  GI50: 32.2 µM (inactive)
HCC 2998
  GI50: > 100 µM (inactive)
SW-620
  GI50: 10.7 µM (inactive)
TK-10
  GI50: 34.2 µM (inactive)
SK-OV-3
  GI50: > 100 µM (inactive)
SR
  GI50: 5.12 µM (inactive)
PC-3
  GI50: 12.6 µM (inactive)
T47D
  GI50: 34.6 µM (inactive)
MDA-MB-231
  GI50: 2.45 µM (inactive)
CCRF-CEM
  GI50: 3.6 µM (inactive)
OVCAR-4
  GI50: 6.12 µM (inactive)
IGROV-1
  GI50: 23.6 µM (inactive)
UO-31
  GI50: 17.9 µM (inactive)
NCI-H23
  GI50: 12.6 µM (inactive)
MCF7
  GI50: 15 µM (inactive)
A498
  GI50: 38.6 µM (inactive)
NCI-H226
  GI50: 11.7 µM (inactive)
OVCAR-5
  GI50: 13.3 µM (inactive)
SF-268
  GI50: 12.1 µM (inactive)
ACHN
  GI50: 50.8 µM (inactive)
MOLT-4
  GI50: > 100 µM (inactive)
RPMI-8226
  GI50: 5.77 µM (inactive)
NCI/ADR-RES
  GI50: 14.9 µM (inactive)
EKVX
  GI50: 7.73 µM (inactive)
U-251
  GI50: 6.87 µM (inactive)
SK-MEL-28
  GI50: 16.8 µM (inactive)
OVCAR-8
  GI50: 14 µM (inactive)
A549
  GI50: 27.9 µM (inactive)
HCT-116
  GI50: 8.89 µM (inactive)
UACC-62
  GI50: 20.2 µM (inactive)
HOP-92
  GI50: 13 µM (inactive)
OVCAR-3
  GI50: 11.6 µM (inactive)
MDA-N
  GI50: 20.3 µM (inactive)
MDA-MB-435
  GI50: 26.5 µM (inactive)
SK-MEL-5
  GI50: 12.6 µM (inactive)
786-0
  GI50: 5.85 µM (inactive)
UACC-257
  GI50: 12.8 µM (inactive)
Hs-578T
  GI50: 14.4 µM (inactive)
HT-29
  GI50: 19.8 µM (inactive)
DU-145
  GI50: 43.6 µM (inactive)
SNB-19
  GI50: 17.4 µM (inactive)

From ChEMBL document CHEMBL1201862, “PubChem BioAssay data set” (2004)
